Source: the supplement of paper PMC12819154, “High-throughput peptide-centric local stability assay extends protein–ligand identification to membrane proteins, tissues and bacteria” (Nature Structural & Molecular Biology, 2025)

Columns and labels:
Assay in all cases: pEC50 of peptide local stability change
UniProt P22188 = conditions: peptide sequence: LWCVFGCGGDRDK; direction: stabilized; replicate design: treated separately
Protocol: (§1)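 Dose-response HT-PELSA: desalted E. coli lysate treated separately per replicate with ATP (10 uM to 10 mM, 7 doses) for 30 min at 25 C, then a 4 min trypsin pulse at 22 C. Peptide ratio vs control was fitted with a 4-parameter log-logistic model (R2 > 0.9 in at least 3 replicates, CV of pEC50 <= 0.25); value is the mean pEC50 across replicates for stabilized or destabilized peptides.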

UniProt P20083 = conditions: peptide sequence: RDGQVYNIAFENGEK; direction: stabilized; replicate design: treated separately
Protocol: as §1

UniProt P03007 = conditions: peptide sequence: VTDSLAVAR; direction: stabilized; replicate design: treated separately
Protocol: as §1

UniProt P15038 = conditions: peptide sequence: AVVNGEHSLLVLAGAGSGK; direction: stabilized; replicate design: treated separately
Protocol: as §1

UniProt P28903 = conditions: peptide sequence: KGDPNYDIK; direction: stabilized; replicate design: treated separately
Protocol: as §1

UniProt P37617 = conditions: peptide sequence: VTQVAFDKTGTLTVGKPR; direction: stabilized; replicate design: treated separately
Protocol: as §1

UniProt P11664 = conditions: peptide sequence: GAPETFDVAK; direction: stabilized; replicate design: treated separately
Protocol: as §1

UniProt P37344 = conditions: peptide sequence: ETLLNYR; direction: stabilized; replicate design: treated separately
Protocol: as §1

UniProt Q46927 = conditions: peptide sequence: AALIAYCR; direction: stabilized; replicate design: treated separately
Protocol: as §1

UniProt P07604 = conditions: peptide sequence: YAWPGNVR; direction: stabilized; replicate design: treated separately
Protocol: as §1

UniProt P14375 = conditions: peptide sequence: ELENAVER; direction: stabilized; replicate design: treated separately
Protocol: as §1

UniProt P43672 = conditions: peptide sequence: LMLGQLQADSGR; direction: stabilized; replicate design: treated separately
Protocol: as §1

UniProt P24182 = conditions: peptide sequence: LMGDKVSAIAAMKK; direction: stabilized; replicate design: treated separately
Protocol: as §1

UniProt P37903 = conditions: peptide sequence: KFKLPTDR; direction: stabilized; replicate design: treated separately
Protocol: as §1

UniProt P42593 = conditions: peptide sequence: TTGWIHR; direction: stabilized; replicate design: treated separately
Protocol: as §1

UniProt P0AA41 = conditions: peptide sequence: EDKGPQPAVTHYR; direction: stabilized; replicate design: treated separately
Protocol: as §1

UniProt P25888 = conditions: peptide sequence: DLMASAQTGTGK; direction: stabilized; replicate design: treated separately
Protocol: as §1

UniProt P13000 = conditions: peptide sequence: TVASCALLQAAK; direction: stabilized; replicate design: treated separately
Protocol: as §1

UniProt P37440 = conditions: peptide sequence: CTAVVADVR; direction: stabilized; replicate design: treated separately
Protocol: as §1

UniProt Q47129 = conditions: peptide sequence: LSTVTTSGVNLSR; direction: stabilized; replicate design: treated separately
Protocol: as §1

UniProt P39342 = conditions: peptide sequence: AMVIAPCSR; direction: stabilized; replicate design: treated separately
Protocol: as §1

UniProt P45395 = conditions: peptide sequence: VNDIMHTGDEIPHVKK; direction: stabilized; replicate design: treated separately
Protocol: as §1

UniProt P75736 = conditions: peptide sequence: QQAAAIMR; direction: stabilized; replicate design: treated separately
Protocol: as §1

UniProt P04993 = conditions: peptide sequence: VAAAVALTR; direction: stabilized; replicate design: treated separately
Protocol: as §1

UniProt P27300 = conditions: peptide sequence: SVDAVIVNGGVPR; direction: stabilized; replicate design: treated separately
Protocol: as §1

UniProt P36938 = conditions: peptide sequence: TLVSSAMIDR; direction: stabilized; replicate design: treated separately
Protocol: as §1

UniProt P17888 = conditions: peptide sequence: QQQALAALR; direction: stabilized; replicate design: treated separately
Protocol: as §1

UniProt P27278 = conditions: peptide sequence: TVAILGGESSGK; direction: stabilized; replicate design: treated separately
Protocol: as §1

UniProt P31548 = conditions: peptide sequence: LPGELSGGQR; direction: stabilized; replicate design: treated separately
Protocol: as §1

UniProt P0A9P6 = conditions: peptide sequence: DVLGMAQTGSGK; direction: stabilized; replicate design: treated separately
Protocol: as §1

UniProt P08192 = conditions: peptide sequence: ASGLEVSENAIR; direction: stabilized; replicate design: treated separately
Protocol: as §1

UniProt P27278, sequence (P27278 whole entry): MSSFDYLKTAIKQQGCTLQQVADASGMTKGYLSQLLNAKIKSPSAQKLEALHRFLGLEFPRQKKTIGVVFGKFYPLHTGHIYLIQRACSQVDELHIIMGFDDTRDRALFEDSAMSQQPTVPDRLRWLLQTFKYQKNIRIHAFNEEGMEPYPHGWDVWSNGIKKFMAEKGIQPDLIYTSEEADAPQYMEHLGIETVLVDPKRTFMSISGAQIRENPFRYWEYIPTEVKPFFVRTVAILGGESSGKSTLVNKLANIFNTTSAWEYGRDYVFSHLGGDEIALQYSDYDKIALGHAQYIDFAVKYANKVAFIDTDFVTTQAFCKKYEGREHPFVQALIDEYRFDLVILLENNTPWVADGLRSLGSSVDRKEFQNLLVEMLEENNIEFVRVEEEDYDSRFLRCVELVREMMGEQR
UniProt P37903, sequence (P37903 whole entry): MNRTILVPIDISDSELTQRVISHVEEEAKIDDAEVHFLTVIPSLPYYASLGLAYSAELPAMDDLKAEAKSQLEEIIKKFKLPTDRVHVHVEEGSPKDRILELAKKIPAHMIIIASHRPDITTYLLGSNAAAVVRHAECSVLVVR
UniProt P14375, sequence (P14375 whole entry): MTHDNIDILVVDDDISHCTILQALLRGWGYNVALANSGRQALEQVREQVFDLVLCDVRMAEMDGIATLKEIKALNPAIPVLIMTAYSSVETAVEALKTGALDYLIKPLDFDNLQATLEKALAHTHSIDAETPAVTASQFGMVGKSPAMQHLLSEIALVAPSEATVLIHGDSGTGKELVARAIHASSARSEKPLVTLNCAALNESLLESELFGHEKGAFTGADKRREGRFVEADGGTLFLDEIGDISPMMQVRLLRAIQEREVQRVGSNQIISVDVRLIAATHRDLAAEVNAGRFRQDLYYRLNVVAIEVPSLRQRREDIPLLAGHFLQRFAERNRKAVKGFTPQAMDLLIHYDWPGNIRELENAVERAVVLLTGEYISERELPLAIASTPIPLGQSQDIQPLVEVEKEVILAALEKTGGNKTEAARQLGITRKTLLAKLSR
UniProt P27300, sequence (P27300 whole entry): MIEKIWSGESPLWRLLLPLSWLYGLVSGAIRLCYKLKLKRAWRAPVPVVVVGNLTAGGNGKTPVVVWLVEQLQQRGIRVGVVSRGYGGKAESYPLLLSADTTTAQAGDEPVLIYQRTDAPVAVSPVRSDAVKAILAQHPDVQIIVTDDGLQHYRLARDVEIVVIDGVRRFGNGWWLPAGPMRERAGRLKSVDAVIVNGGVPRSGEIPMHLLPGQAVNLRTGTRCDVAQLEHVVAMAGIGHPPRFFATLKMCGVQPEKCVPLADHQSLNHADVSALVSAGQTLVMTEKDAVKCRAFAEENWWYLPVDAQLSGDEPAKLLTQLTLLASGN
UniProt P37440, sequence (P37440 whole entry): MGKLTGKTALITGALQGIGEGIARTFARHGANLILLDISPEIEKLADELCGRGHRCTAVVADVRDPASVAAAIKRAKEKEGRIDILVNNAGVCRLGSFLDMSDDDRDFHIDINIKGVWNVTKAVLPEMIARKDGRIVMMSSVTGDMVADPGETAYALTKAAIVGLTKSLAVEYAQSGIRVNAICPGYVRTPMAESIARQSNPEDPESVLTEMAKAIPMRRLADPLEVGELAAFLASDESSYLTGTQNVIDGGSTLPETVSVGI
UniProt P45395, sequence (P45395 whole entry): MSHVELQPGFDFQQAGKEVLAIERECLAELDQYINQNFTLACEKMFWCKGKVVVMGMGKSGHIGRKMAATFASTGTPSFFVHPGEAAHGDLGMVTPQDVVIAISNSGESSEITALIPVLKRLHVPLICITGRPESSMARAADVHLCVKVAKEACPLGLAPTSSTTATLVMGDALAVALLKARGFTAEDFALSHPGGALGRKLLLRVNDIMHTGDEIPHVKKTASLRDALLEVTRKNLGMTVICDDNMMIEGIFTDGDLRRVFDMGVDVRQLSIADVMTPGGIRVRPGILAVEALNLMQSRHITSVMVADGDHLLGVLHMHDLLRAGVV
UniProt P17888, sequence (P17888 whole entry): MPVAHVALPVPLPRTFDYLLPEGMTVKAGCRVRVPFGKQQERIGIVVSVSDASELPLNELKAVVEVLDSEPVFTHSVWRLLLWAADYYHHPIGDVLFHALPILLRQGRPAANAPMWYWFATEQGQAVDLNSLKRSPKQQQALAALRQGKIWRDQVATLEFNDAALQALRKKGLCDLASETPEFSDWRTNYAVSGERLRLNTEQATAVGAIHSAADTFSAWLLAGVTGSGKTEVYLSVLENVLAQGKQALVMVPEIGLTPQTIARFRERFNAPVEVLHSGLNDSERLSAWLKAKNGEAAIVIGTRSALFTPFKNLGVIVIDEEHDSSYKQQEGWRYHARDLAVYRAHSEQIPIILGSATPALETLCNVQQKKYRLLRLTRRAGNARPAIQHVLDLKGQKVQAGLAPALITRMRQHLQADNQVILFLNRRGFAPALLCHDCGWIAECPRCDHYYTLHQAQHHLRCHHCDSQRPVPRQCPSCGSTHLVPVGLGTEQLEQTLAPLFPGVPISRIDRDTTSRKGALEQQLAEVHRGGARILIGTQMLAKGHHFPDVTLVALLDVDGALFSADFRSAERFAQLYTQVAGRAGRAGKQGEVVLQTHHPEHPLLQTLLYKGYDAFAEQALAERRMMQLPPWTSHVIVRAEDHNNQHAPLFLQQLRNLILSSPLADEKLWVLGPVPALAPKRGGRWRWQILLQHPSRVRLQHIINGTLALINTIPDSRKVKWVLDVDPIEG
UniProt P39342, sequence (P39342 whole entry): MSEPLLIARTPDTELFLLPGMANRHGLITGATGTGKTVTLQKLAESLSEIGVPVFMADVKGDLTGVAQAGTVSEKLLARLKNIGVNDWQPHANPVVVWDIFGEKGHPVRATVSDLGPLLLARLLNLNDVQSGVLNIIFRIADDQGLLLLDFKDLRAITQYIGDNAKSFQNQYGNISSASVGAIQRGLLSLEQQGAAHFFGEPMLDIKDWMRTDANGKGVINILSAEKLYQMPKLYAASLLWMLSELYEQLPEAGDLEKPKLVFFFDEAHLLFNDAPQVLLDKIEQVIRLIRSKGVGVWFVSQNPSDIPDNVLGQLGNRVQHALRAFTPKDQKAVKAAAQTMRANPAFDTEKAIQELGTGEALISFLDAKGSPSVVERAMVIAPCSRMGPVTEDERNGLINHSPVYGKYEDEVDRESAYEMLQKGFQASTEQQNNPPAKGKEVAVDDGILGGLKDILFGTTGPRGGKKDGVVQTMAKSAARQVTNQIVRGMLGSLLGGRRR
UniProt P28903, sequence (P28903 whole entry): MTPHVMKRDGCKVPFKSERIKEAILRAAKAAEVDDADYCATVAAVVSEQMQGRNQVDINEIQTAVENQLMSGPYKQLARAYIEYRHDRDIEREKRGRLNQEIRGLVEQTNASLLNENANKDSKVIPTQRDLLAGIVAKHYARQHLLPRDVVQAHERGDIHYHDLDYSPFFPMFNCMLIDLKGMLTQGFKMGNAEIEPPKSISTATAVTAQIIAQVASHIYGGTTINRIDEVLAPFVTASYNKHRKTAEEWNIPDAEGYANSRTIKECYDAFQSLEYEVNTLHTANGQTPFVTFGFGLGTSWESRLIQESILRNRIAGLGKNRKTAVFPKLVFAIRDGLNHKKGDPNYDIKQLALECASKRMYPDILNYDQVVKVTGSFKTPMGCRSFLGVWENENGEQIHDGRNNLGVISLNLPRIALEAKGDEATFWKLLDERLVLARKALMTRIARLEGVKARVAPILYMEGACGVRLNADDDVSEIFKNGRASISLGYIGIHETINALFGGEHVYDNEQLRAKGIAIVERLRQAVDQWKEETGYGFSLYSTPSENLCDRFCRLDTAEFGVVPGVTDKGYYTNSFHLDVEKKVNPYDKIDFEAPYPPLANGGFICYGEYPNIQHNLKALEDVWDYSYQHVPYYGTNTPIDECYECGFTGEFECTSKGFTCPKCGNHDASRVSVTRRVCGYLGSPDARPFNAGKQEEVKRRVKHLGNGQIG
UniProt P75736, sequence (P75736 whole entry): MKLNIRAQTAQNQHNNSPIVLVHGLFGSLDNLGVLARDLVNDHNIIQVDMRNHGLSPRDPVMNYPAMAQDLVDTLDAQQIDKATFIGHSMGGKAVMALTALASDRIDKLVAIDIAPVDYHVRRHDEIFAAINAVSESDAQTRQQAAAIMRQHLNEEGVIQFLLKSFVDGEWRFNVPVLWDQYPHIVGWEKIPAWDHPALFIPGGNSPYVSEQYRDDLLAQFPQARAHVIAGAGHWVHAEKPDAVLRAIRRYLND
UniProt P03007, sequence (P03007 whole entry): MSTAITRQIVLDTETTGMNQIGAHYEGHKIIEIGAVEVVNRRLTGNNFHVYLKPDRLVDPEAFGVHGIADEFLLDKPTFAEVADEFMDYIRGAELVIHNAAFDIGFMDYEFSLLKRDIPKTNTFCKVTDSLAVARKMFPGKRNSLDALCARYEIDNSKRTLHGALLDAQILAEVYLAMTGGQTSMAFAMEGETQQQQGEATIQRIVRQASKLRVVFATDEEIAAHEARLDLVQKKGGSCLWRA
UniProt Q46927, sequence (Q46927 whole entry): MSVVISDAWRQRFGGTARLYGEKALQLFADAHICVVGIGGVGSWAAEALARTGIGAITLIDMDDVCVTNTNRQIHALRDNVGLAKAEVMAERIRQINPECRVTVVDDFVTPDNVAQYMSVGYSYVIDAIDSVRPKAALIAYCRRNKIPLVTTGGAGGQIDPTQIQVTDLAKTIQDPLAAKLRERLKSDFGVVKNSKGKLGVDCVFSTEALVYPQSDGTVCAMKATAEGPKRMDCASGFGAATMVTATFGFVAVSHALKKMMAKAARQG
UniProt P0AA41, sequence (P0AA41 whole entry): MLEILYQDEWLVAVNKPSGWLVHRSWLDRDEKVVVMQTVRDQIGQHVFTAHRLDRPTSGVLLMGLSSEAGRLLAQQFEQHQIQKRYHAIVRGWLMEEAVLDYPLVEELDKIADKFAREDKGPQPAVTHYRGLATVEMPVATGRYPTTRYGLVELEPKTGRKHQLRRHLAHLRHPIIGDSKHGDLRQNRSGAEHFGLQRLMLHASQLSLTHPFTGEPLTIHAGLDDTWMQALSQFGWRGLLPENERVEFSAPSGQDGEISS

Nc1ncnc2c1ncn2[C@@H]1O[C@H](COP(=O)(O)OP(=O)(O)OP(=O)(O)O)[C@@H](O)[C@H]1O [adenosine 5'-triphosphate]
Conditions	pEC50 of peptide local stability change
UniProt P0A9P6	3.67
UniProt P0AA41	2.34
UniProt P03007	2.27
UniProt P04993	2.84
UniProt P07604	4.06
UniProt P08192	2.7
UniProt P11664	3.03
UniProt P13000	4.87
UniProt P14375	3.65
UniProt P15038	3.67
UniProt P17888	3.81
UniProt P20083	3.38
UniProt P22188	3.89
UniProt P24182	3.89
UniProt P25888	3.76
UniProt P27278	3.44
UniProt P27300	3.18
UniProt P28903	2.76
UniProt P31548	3.79
UniProt P36938	2.48
UniProt P37344	3.2
UniProt P37440	2.72
UniProt P37617	3.12
UniProt P37903	3.72
UniProt P39342	4.23
UniProt P42593	2.95
UniProt P43672	3.81
UniProt P45395	3.32
UniProt P75736	2.02
UniProt Q46927	3.69
UniProt Q47129	2.46
